# In patent US12296017B2, “Bioorthogonal compositions” (TAMBO, INC., priority 2017, dated 2025):
# “And” between values parts separate entries of the source, which are not always exact repeats. Identical values can stand only once.
# Assays:
# [1] = Aqueous solubility of Example 13B under different buffer conditions
# [2] = system: methicillin-resistant Staphylococcus Aureus SP231; assay: Rat knee joint MRSA infection study; format: in vivo; conditions: rats; TAG (right knee) vs unmodified alginate control gel (left knee); prodrug via tail vein; 24 h; p<0.05
# Protocol: Prodrug, TCO-Dapto was delivered systemically via tail vein. Mean±SEM of n=3, unpaired two-tailed Welch's t-test, *p<0.05.
# Female Sprague-Dawley rats of age 6-8 weeks were approved for this study by the Institution of Animal Care and Use Committee (IACUC). Neutropenia was induced with cyclophosphamide intraperitoneally, 4 days (150 mg/kg) and 1 day (100 mg/kg) prior to gel injections. Animals received intra-articular injections of […] of 2.5% w/v of Cy5-modified alginate TAG (right knee) or unmodified alginate-Cy5 gel control (left knee) mixed with […] of 10^8 CFU/mL of methicillin-resistant Staphylococcus Aureus SP231 bacteria. After 2 h, animals received 61 μM of transcyclooctene-modified daptomycin-glycine (TCO-Dapto) via tail vein IV at standard dosing volume. After 24 h of gel injections, knee joints were harvested, homogenized and diluted in Dubelco's Phosphate buffered saline (D-PBS). Homogenized mixture was plated onto trypticase soy agar plates containing 5% sheep's blood duplicate. Bacterial colonies were enumerated following 20 h of incubation and bacterial load as LOG CFU/g of knee joint was determined. Statistical analysis was performed with Welch's two-tailed t-test and * denotes p<0.05. Error bars indicate standard error over means of n=3.
# bacteria = assay: Microcalorimetry activity of Vanco-Bis-TCO-Glycine; format: cell-based; conditions: tested up to 64 μg/ml (32 μM), without activating gel
# MRSA bacteria = assay: In vitro calorimetry (MRSA) in presence and absence of TAG
# [3] = Phosphate Buffer pH 6.5, final pH 6.1
# [4] = Phosphate Buffer pH 7.5, final pH 5.4
Structure (SMILES),"Solubility, Mean ([1]; Buffer: Water, final pH 3.4) [mg/mL]","Solubility, Value ([1]; Buffer: Water, final pH 3.4)","Solubility, Mean [1, 3] [mg/mL]","Solubility, Value [1, 3]","Solubility, Mean [1, 4] [mg/mL]","Solubility, Value [1, 4]",bacterial loading of harvested knee joint [2],activity against bacteria as measured by microcalorimetry (bacteria),MHIC in the absence of TAG relative to presence of TAG (MRSA bacteria) [×]
"CCCCCCCCCC(=O)NC(Cc1c[nH]c2ccccc12)C(=O)NC(CC(N)=O)C(=O)NC(CC(=O)O)C(=O)NC1C(=O)NCC(=O)NC(CCCNC(=O)OC2C=CCCC(C)(C(=O)NCC(=O)O)CC2)C(=O)NC(CC(=O)O)C(=O)NC(C)C(=O)NC(CC(=O)O)C(=O)NCC(=O)NC(CO)C(=O)NC(C(C)CC(=O)O)C(=O)NC(CC(=O)c2ccccc2N)C(=O)OC1C (stereo not drawn) [Example 13B, Dapto-TCO-Glycine]",0.15,0.15 mg/mL and 0.14 mg/mL,10.9,10.8 mg/mL and 10.9 mg/mL,38.3,38.1 mg/mL and 38.3 mg/mL,reduces MRSA infection in vivo in a knee joint,–,–
"CC(C)CC(C(=O)N[C@H]1C(=O)N[C@@H](CC(N)=O)C(=O)N[C@H]2C(=O)N[C@H]3C(=O)N[C@H](C(=O)N[C@H](C(=O)O)c4cc(O)cc(O)c4-c4cc3ccc4O)[C@H](O)c3ccc(c(Cl)c3)Oc3cc2cc(c3O[C@@H]2O[C@H](CO)[C@@H](O)[C@H](O)[C@H]2O[C@H]2C[C@](C)(NC(=O)O[C@@H]3/C=C/CC[C@](C)(C(=O)NCC(=O)O)CC3)[C@H](O)[C@H](C)O2)Oc2ccc(cc2Cl)[C@H]1O)N(C)C(=O)O[C@@H]1/C=C/CC[C@](C)(C(=O)NCC(=O)O)CC1 (stereo partly drawn) [Example 13C, Vanco-Bis-TCO-glycine Conjugate]",–,–,–,–,–,–,–,no activity,8
